# Target: human GPR52 (Homo sapiens, UniProt Q9Y2T5)
# Test: GPR52 Agonist Functional cAMP Assay;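 further: HEKf cells transduced with GPR52 BacMam for 24 h, 2000 per well, exposed to compounds 30 min at 37° C with 0.5 mM IBMX, cAMP read by HTRF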
# Settings: for Emax: maximal response normalised to DMSO (0%) and maximal compound 7m (J. Med. Chem., 2014, 57, 5226) response (100%); for EC50: pEC50 average, HEKf cells infected with human GPR52 BacMam virus, cAMP HTRF, 30 min at 37° C.
# Experimental: Following BacMam infection, cells were pelleted by centrifugation (335 g, 5 min), resuspended in cell freezing medium (Sigma) and frozen at −150° C. until required. On experiment day, 25 nL GPR52 compound dilutions, prepared in DMSO, were stamped onto proxiplates (PerkinElmer) by a LabCyte ECHO acoustic dispenser. Frozen cells were thawed and resuspended in assay stimulation buffer (Cisbio) containing 0.5 mM 3-iso-butyl-1-methylxanthine (IBMX, Sigma) to achieve a density of 2000 cells per well. 10 μl cells were added to assay plates using a Multidrop Combi Reagent Dispenser (ThermoFisher) before centrifugation (335 g, 1 min). Cells were incubated with compounds at 37° C. for 30 min prior to addition of cAMP detection reagents (HiRange cAMP kit, Cisbio) which were prepared according to the manufacturer's instructions. Plates were shaken for 1 h at room temperature before reading on a PHERAstar FS plate reader (BMG Labtech) using standard HTRF settings.
# Chain of human GPR52 (Q9Y2T5 whole entry): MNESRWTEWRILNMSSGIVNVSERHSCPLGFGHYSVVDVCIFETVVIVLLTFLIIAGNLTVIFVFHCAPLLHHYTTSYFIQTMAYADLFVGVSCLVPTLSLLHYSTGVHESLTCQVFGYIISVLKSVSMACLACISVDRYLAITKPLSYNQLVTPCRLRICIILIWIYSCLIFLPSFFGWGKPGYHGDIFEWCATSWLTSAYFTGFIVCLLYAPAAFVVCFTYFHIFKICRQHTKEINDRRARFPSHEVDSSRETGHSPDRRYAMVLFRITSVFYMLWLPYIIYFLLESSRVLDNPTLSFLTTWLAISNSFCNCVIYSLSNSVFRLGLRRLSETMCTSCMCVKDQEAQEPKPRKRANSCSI
SMILES,Emax,EC50
"CC1Cc2c(cnn2-c2ccnc(Cc3cc(F)cc(C(F)(F)F)c3)c2)C(=O)N1 (stereo not drawn) [Example 40, 1-(2-(3-fluoro-5-(trifluoromethyl)benzyl)pyridin-4-yl)-6-methyl-1,5,6,7-tetrahydro-4H-pyrazolo[4,3-c]pyridin-4-one]",93%,100 nM
"O=C1NCCCc2c1nnn2-c1cc(Cc2cccc(C(F)(F)F)c2)ccn1 [Example 41, 1-(4-(3-(trifluoromethyl)benzyl)pyridin-2-yl)-5,6,7,8-tetrahydro-[1,2,3]triazolo[4,5-c]azepin-4(1H)-one]",90%,794 nM
"O=C1NCCc2c1nnn2-c1cc(Cc2cccc(C(F)(F)F)c2)ccn1 [Example 42, 1-(4-(3-(trifluoromethyl)benzyl)pyridin-2-yl)-1,5,6,7-tetrahydro-4H-[1,2,3]triazolo[4,5-c]pyridin-4-one]",90%,794 nM
"O=C1NCCc2nn(-c3cc(Cc4cccc(C(F)(F)F)c4)ccn3)nc21 [Example 43, 2-(4-(3-(trifluoromethyl)benzyl)pyridin-2-yl)-2,5,6,7-tetrahydro-4H-[1,2,3]triazolo[4,5-c]pyridin-4-one]",86%,251 nM
"CC1CNC(=O)c2cnn(-c3ccnc(Cc4cc(F)cc(C(F)(F)F)c4)c3)c21 (stereo not drawn) [Example 50, 1-(2-(3-fluoro-5-(trifluoromethyl)benzyl)pyridin-4-yl)-7-methyl-1,5,6,7-tetrahydro-4H-pyrazolo[4,3-c]pyridin-4-one]",95%,39.8 nM
"O=C1NCCc2c1ccn2-c1ccnc(Cc2cc(F)cc(C(F)(F)F)c2)c1 [Example 51, 1-(2-(3-fluoro-5-(trifluoromethyl)benzyl)pyridin-4-yl)-1,5,6,7-tetrahydro-4H-pyrrolo[3,2-c]pyridin-4-one]",95%,126 nM
"O=C1NCCc2c1cnn2-c1ccnc(Oc2cc(F)cc(C(F)(F)F)c2)c1 [Example 52, 1-(2-(3-fluoro-5-(trifluoromethyl)phenoxy)pyridin-4-yl)-1,5,6,7-tetrahydro-4H-pyrazolo[4,3-c]pyridin-4-one]",69%,1580 nM
"O=C1NCCc2c1cnn2-c1ccnc(Cc2ccc(C(F)(F)F)c(F)c2)c1 [Example 54, 1-(2-(3-fluoro-4-(trifluoromethyl)benzyl)pyridin-4-yl)-1,5,6,7-tetrahydro-4H-pyrazolo[4,3-c]pyridin-4-one]",63%,398 nM
"COc1ccc(Cc2cc(-n3ncc4c3CCNC4=O)ccn2)cc1C(F)(F)F [Example 55, 1-(2-(4-methoxy-3-(trifluoromethyl)benzyl)pyridin-4-yl)-1,5,6,7-tetrahydro-4H-pyrazolo[4,3-c]pyridin-4-one]",69%,398 nM
"O=C1NCCc2c1cnn2-c1cc(Cc2cc(F)cc(C(F)(F)F)c2)ncn1 [Example 56, 1-(6-(3-fluoro-5-(trifluoromethyl)benzyl)pyrimidin-4-yl)-1,5,6,7-tetrahydro-4H-pyrazolo[4,3-c]pyridin-4-one]",98%,126 nM
"COc1cc(Cc2cc(-n3ncc4c3CCNC4=O)ccn2)cc(C(F)(F)F)c1 [Example 57, 1-(2-(3-methoxy-5-(trifluoromethyl)benzyl)pyridin-4-yl)-1,5,6,7-tetrahydro-4H-pyrazolo[4,3-c]pyridin-4-one]",44%,794 nM
"O=C1NCCc2c1cnn2-c1ccnc(Cc2cc(F)c(Cl)c(F)c2)c1 [Example 58, 1-(2-(4-chloro-3,5-difluorobenzyl)pyridin-4-yl)-1,5,6,7-tetrahydro-4H-pyrazolo[4,3-c]pyridin-4-one]",79%,100 nM
"O=C1NCCc2c1cnn2-c1ccnc(Cc2cc(F)cc(S(F)(F)(F)(F)F)c2)c1 [Example 61, 1-(2-(3-fluoro-5-(pentafluoro-λ^6-sulfaneyl)benzyl)pyridin-4-yl)-1,5,6,7-tetrahydro-4H-pyrazolo[4,3-c]pyridin-4-one]",99%,50.1 nM
"O=C1NCCc2c1cnn2-c1ccnc(Cc2cc(F)cc(OC(F)F)c2)c1 [Example 62, 1-(2-(3-(difluoromethoxy)-5-fluorobenzyl)pyridin-4-yl)-1,5,6,7-tetrahydro-4H-pyrazolo[4,3-c]pyridin-4-one]",94%,79.4 nM
"O=C1NCCc2c1cnn2-c1ccnc(Cc2cc(F)c(F)c(C(F)(F)F)c2)c1 [Example 64, 1-(2-(3,4-difluoro-5-(trifluoromethyl)benzyl)pyridin-4-yl)-1,5,6,7-tetrahydro-4H-pyrazolo[4,3-c]pyridin-4-one]",94%,20 nM

# More lines, now with the values ahead:
Emax,EC50,SMILES
74%,2000 nM,"CN1CCc2nn(-c3cc(Cc4cccc(C(F)(F)F)c4)ccn3)nc2C1=O [Example 44, 5-methyl-2-(4-(3-(trifluoromethyl)benzyl)pyridin-2-yl)-2,5,6,7-tetrahydro-4H-[1,2,3]triazolo[4,5-c]pyridin-4-one]"
75%,631 nM,"O=C1NCCCc2nn(-c3cc(Cc4cccc(C(F)(F)F)c4)ccn3)nc21 [Example 45, 2-(4-(3-(trifluoromethyl)benzyl)pyridin-2-yl)-5,6,7,8-tetrahydro-[1,2,3]triazolo[4,5-c]azepin-4(2H)-one]"
90%,200 nM,"O=C1NCCCc2c1nnn2-c1cc(Cc2cc(F)cc(C(F)(F)F)c2)ccn1 [Example 46, 1-(4-(3-fluoro-5-(trifluoromethyl)benzyl)pyridin-2-yl)-5,6,7,8-tetrahydro-[1,2,3]triazolo[4,5-c]azepin-4(1H)-one]"
81%,79.4 nM,"O=C1NOCc2c1cnn2-c1cc(Cc2cc(F)cc(C(F)(F)F)c2)ccn1 [Example 47, 1-(4-(3-fluoro-5-(trifluoromethyl)benzyl)pyridin-2-yl)-1,7-dihydropyrazolo[4,3-c/][1,2]oxazin-4(5H)-one]"
100%,6.31 nM,"O=C1NCCc2c1cnn2-c1ccnc(Cc2cc(F)cc(C3CC3)c2)c1 [Example 53, 1-(2-(3-cyclopropyl-5-fluorobenzyl)pyridin-4-yl)-1,5,6,7-tetrahydro-4H-pyrazolo[4,3-c]pyridin-4-one]"
79%,79.4 nM,"O=C1NCCc2c1cnn2-c1ccnc(Cc2ccc3sccc3c2)c1 [Example 59, 1-(2-(benzo[b]thiophen-5-ylmethyl)pyridin-4-yl)-1,5,6,7-tetrahydro-4H-pyrazolo[4,3-c]pyridin-4-one]"
83%,398 nM,"COc1cc(Cc2cc(-n3ncc4c3CCNC4=O)ccn2)ccc1C(F)(F)F [Example 60, 1-(2-(3-methoxy-4-(trifluoromethyl)benzyl)pyridin-4-yl)-1,5,6,7-tetrahydro-4H-pyrazolo[4,3-c]pyridin-4-one]"
70%,126 nM,"O=C1NCCc2c1cnn2-c1ccnc(Cc2ccc(OC(F)F)c(F)c2)c1 [Example 63, 1-(2-(4-(difluoromethoxy)-3-fluorobenzyl)pyridin-4-yl)-1,5,6,7-tetrahydro-4H-pyrazolo[4,3-c]pyridin-4-one]"
100%,25.1 nM,"O=C1NCCc2c1cnn2-c1ccnc(Cc2cc(F)c(F)c(Cl)c2)c1 [Example 66, 1-(2-(3-chloro-4,5-difluorobenzyl)pyridin-4-yl)-1,5,6,7-tetrahydro-4H-pyrazolo[4,3-c]pyridin-4-one]"

# — patent US20230002374A1, “GPR52 MODULATOR COMPOUNDS” (Heptares Therapeutics Limited, priority 2019, published 2023)
